What was measured:
[1] = system: IPOHE (Morningglory, Ivyleaf); experiment: Postemergence herbicidal evaluation; format: in vivo, Ipomoea hederacea; settings: postemergence
Outline: (§1)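 Visual 0-9 injury score (stand, vigor, malformation, size, chlorosis, appearance vs untreated) taken four to five weeks post-spray, averaged across repeat tests. Test plants about two weeks old; foliar spray of acetone/water (1:1) with 0.5% surfactant delivering ~0.0156-0.500 kg active/ha.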

[2] = system: ECHCG (Barnyardgrass); experiment: Preemergence herbicidal evaluation; format: in vivo, Echinochloa crus-galli; settings: rated 4-5 weeks after treatment
Outline: (§2)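 Rating at 4–5 wk post-spray on a 0–9 visual scale vs control. Application: aqueous acetone, ~0.0156–0.500 kg/ha, to soil surface after seeding, preemergence.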

[3] = system: CASOB (Sicklepod); experiment: Postemergence herbicidal evaluation; format: in vivo, Cassia obtusifolia; settings: postemergence
Outline: as §1

[4] = system: CHEAL (Lambsquarters, Common); experiment: Postemergence herbicidal evaluation; format: in vivo, Chenopodium album; settings: postemergence
Outline: as §1

[5] = system: SETVI (Foxtail, Green); experiment: Postemergence herbicidal evaluation; format: in vivo, Setaria viridis; settings: postemergence
Outline: as §1

[6] = system: CYPIR (Rice Flatsedge); experiment: Preemergence weed control under flooded paddy conditions; format: in vivo, Cyperus iria; settings: rated 3-4 weeks after treatment
Outline: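 Silt loam, seeds in top 0.5 cm; flood held 1.5-3 cm; test cpd as acetone/water 50/50 into flood water, ~0.0313-0.500 kg/ha a.i.; greenhouse 3-4 wk; visual 0-9 score vs control.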

[7] = system: MOOVA (Monochoria); experiment: as above; format: in vivo, Monochoria vaginalis; settings: rated 3-4 weeks after treatment
Outline: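 Seeds or propagules sown in top 0.5 cm of silt loam soil, flooded 1.5 to 3 cm above surface throughout. Compound in 50/50 v/v aqueous/acetone pipetted into flood water at about 0.0313 to 0.500 kg/ha. Visual 0-9 rating versus control after three to four weeks in greenhouse.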

[8] = system: ZEAMX (Corn, Field); experiment: Preemergence herbicidal evaluation; format: in vivo, Zea mays; settings: rated 4-5 weeks after treatment
Outline: as §2

[9] = system: GLXMAW (Soybean, Williams); experiment: Postemergence herbicidal evaluation; format: in vivo, Glycine max, (L.) Merr. cv Williams; settings: postemergence
Outline: as §1

[10] = system: GALAP (Galium); experiment: Postemergence herbicidal evaluation; format: in vivo, Galium aparine; settings: postemergence
Outline: as §1

[11] = system: TRZAWR (Wheat, Winter, cv Riband); experiment: Postemergence herbicidal evaluation; format: in vivo, Triticum aestivum; settings: postemergence
Outline: as §1

[12] = system: SAGPY (Arrowhead (Pygmaea)); experiment: Postemergence weed control under flooded paddy conditions; format: in vivo, Sagittaria pygmaea; settings: postemergence weeds, rated 3 to 4 weeks after treatment
Outline: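 Weeds 3 to 5 cm tall and rice seedlings at the 1.5 to 2.5 leaf stage were flooded, with water held 1.5 to 3 cm above the soil. Compounds in 50/50 v/v aqueous/acetone went into the flood water at about 0.0313 to 0.500 kg/ha. Visual 0-9 ratings versus control were made 3 to 4 weeks later.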

[13] = system: ABUTH (Velvetleaf); experiment: Preemergence herbicidal evaluation; format: in vivo, Abutilon theophrasti; settings: rated 4-5 weeks after treatment
Outline: as §2

[14] = system: ECHCG (Barnyardgrass); experiment: Postemergence herbicidal evaluation; format: in vivo, Echinochloa crus-galli; settings: postemergence
Outline: as §1

## CCOC(=O)CN1C(=O)C(Cc2ccccc2OC(C)C(=O)O)S/C1=N/c1cc(-n2c(=O)cc(C(F)(F)F)n(C)c2=O)c(F)cc1Cl (stereo not drawn) [Compound 114, 5-[o-(1-Carboxyethoxy)benzyl]-2-{{2-chloro-5-[3,6-dihydro-3-methyl-2,6-dioxo-4-(trifluoromethyl)-1(2H)-pyrimidinyl]-4-fluorophenyl}imino}-4-oxo-3-thiazolidineacetic acid, 3-ethyl ester]
[1]; rate 0.0158 kg/ha
  herbicidal rating IPOHE: 9.0
[1]; rate 0.0315 kg/ha
  herbicidal rating IPOHE: 9.0
[1]; rate 0.0630 kg/ha
  herbicidal rating IPOHE: 9.0
[2]; rate 0.0156 kg/ha
  Preemergence herbicidal rating ECHCG: 0.0
[2]; rate 0.0313 kg/ha
  Preemergence herbicidal rating ECHCG: 0.0
[2]; rate 0.0625 kg/ha
  Preemergence herbicidal rating ECHCG: 0.0
[2]; rate 0.1250 kg/ha
  Preemergence herbicidal rating ECHCG: 2.0
[2]; rate 0.2500 kg/ha
  Preemergence herbicidal rating ECHCG: 4.0
[3]; rate 0.0158 kg/ha
  herbicidal rating CASOB: 1.0
[3]; rate 0.0315 kg/ha
  herbicidal rating CASOB: 1.0
[3]; rate 0.0630 kg/ha
  herbicidal rating CASOB: 1.0
[4]; rate 0.0158 kg/ha
  herbicidal rating CHEAL: 7.0
[4]; rate 0.0315 kg/ha
  herbicidal rating CHEAL: 6.0
[4]; rate 0.0630 kg/ha
  herbicidal rating CHEAL: 9.0
[5]; rate 0.0158 kg/ha
  herbicidal rating SETVI: 4.0
[5]; rate 0.0315 kg/ha
  herbicidal rating SETVI: 3.0
[5]; rate 0.0630 kg/ha
  herbicidal rating SETVI: 9.0
[6]; 0.0313 kg/ha
  CYPIR herbicidal effect rating: 4.5
[6]; 0.0625 kg/ha
  CYPIR herbicidal effect rating: 6.5
[6]; 0.1250 kg/ha
  CYPIR herbicidal effect rating: 8.5
[6]; 0.2500 kg/ha
  CYPIR herbicidal effect rating: 9.0
[7]; 0.0313 kg/ha
  MOOVA herbicidal effect rating: 9.0
[7]; 0.0625 kg/ha
  MOOVA herbicidal effect rating: 9.0
[7]; 0.1250 kg/ha
  MOOVA herbicidal effect rating: 9.0
[7]; 0.2500 kg/ha
  MOOVA herbicidal effect rating: 9.0
[8]; rate 0.0156 kg/ha
  Preemergence herbicidal rating ZEAMX: 0.0
[8]; rate 0.0313 kg/ha
  Preemergence herbicidal rating ZEAMX: 1.0
[8]; rate 0.0625 kg/ha
  Preemergence herbicidal rating ZEAMX: 1.0
[8]; rate 0.1250 kg/ha
  Preemergence herbicidal rating ZEAMX: 1.0
[8]; rate 0.2500 kg/ha
  Preemergence herbicidal rating ZEAMX: 2.0
[9]; rate 0.0158 kg/ha
  herbicidal rating GLXMAW: 6.0
[9]; rate 0.0315 kg/ha
  herbicidal rating GLXMAW: 5.5
[9]; rate 0.0630 kg/ha
  herbicidal rating GLXMAW: 6.5
[10]; rate 0.0158 kg/ha
  herbicidal rating GALAP: 1.0
[10]; rate 0.0315 kg/ha
  herbicidal rating GALAP: 1.0
[10]; rate 0.0630 kg/ha
  herbicidal rating GALAP: 3.0
[11]; rate 0.0158 kg/ha
  herbicidal rating TRZAWR: 2.0
[11]; rate 0.0315 kg/ha
  herbicidal rating TRZAWR: 3.0
[11]; rate 0.0630 kg/ha
  herbicidal rating TRZAWR: 4.0
[12]; Rate 0.0313 kg/ha
  Herbicidal rating SAGPY: 0.0
[12]; Rate 0.0625 kg/ha
  Herbicidal rating SAGPY: 0.0
[12]; Rate 0.1250 kg/ha
  Herbicidal rating SAGPY: 0.0
[12]; Rate 0.2500 kg/ha
  Herbicidal rating SAGPY: 0.0
[13]; rate 0.0156 kg/ha
  Preemergence herbicidal rating ABUTH: 0.0
[13]; rate 0.0313 kg/ha
  Preemergence herbicidal rating ABUTH: 1.0
[13]; rate 0.0625 kg/ha
  Preemergence herbicidal rating ABUTH: 6.0
[13]; rate 0.1250 kg/ha
  Preemergence herbicidal rating ABUTH: 9.0
[13]; rate 0.2500 kg/ha
  Preemergence herbicidal rating ABUTH: 9.0
[14]; rate 0.0158 kg/ha
  herbicidal rating ECHCG: 0.0
[14]; rate 0.0315 kg/ha
  herbicidal rating ECHCG: 1.0
[14]; rate 0.0630 kg/ha
  herbicidal rating ECHCG: 4.0

From US20020137929A1, “1 - (3-heterocyclylphenyl) isothiourea, -isourea, -guanidine and -amidine herbicidal agents” (Intellectual Property Department, BASF Aktiengesellschaft, priority 1998, published 2002)
